pIC50: −log10 of the molar value. Counter-ions that a name gives are not always drawn.
These compounds were tested on platelet-rich plasma (PRP) platelets (assay: Platelet aggregation assay (agonist-induced aggregation in human platelet-rich plasma, aggregometer)). Settings: inhibition of agonist-induced platelet aggregation, test compounds added prior to activation of the platelets.
Type: cell-based
Description: Platelet Aggregation Assay:
Venous blood was obtained from the arm of a healthy human donor who was drug-free and aspirin-free for at least two weeks prior to blood collection. Blood was collected into 10 mL citrated Vacutainer tubes. The blood was centrifuged for 15 minutes at 150×g at room temperature, and platelet-rich plasma (PRP) was removed. The remaining blood was centrifuged for 15 minutes at 1500×g at room temperature, and platelet-poor plasma (PPP) was removed. Samples were assayed on a aggregometer (PAP-4 Platelet Aggregation Profiler), using PPP as the blank (100% transmittance). 200 μL of PRP was added to each micro test tube, and transmittance was set to 0%. 20 μL of various agonists (ADP, collagen, arachidonate, epinephrine, thrombin) were added to each tube, and the aggregation profiles were plotted (% transmittance versus time). The results are expressed as % inhibition of agonist-induced platelet aggregation. For the IC50 evaluation, the test compounds were added at various concentrations prior to the activation of the platelets.

SMILES | pIC50
CCCCOC(=O)N[C@@H](CNC(=O)c1cc(OCc2ccc(C(=N)N)cc2)no1)C(=O)OC [Example 142, Methyl N^2-n-butyloxycarbonyl-N^3-[3-(4-amidinobenzyloxy)-5 isoxazolecarbonyl]-L-2,3-diaminopropionate TFA salt] | > 5.00
CCCCS(=O)(=O)N[C@@H](CNC(=O)c1cccc(COc2ccc(C(=N)N)cc2)c1)C(=O)O [Example 14, N^2-1-butanesulfonyl-N^3-(3-(4-amidinophenyloxymethyl)benzoyl)-2,3-diaminopropionic acid TFA salt] | > 5.00
O=C(O)CC1CCCCN1C(=O)c1ccc(OCCC2CCNCC2)cc1 (stereo not shown) [Example 482] | 4.00 to 4.29
CC(CC(=O)O)NC(=O)c1cccc(COc2ccc(C(=N)N)cc2)c1 (racemic) [Example 85, N-(3-(4-Amidinophenyloxymethyl)benzoyl)-DL-3-aminobutyric acid TFA salt] | > 5.00
CC(CC(=O)O)NC(=O)c1cccc(OCc2ccc(C(=N)N)cc2)c1 (racemic) [Example 91, N-(3-(4-amidinobenzyloxy)benzoyl)-DL-3-aminobutyric acid TFA salt] | > 5.00
COC(=O)[C@H](CNC(=O)c1cccc(COc2ccc(C(=N)N)cc2)c1)NC(=O)Cc1ccncc1 [Example 501a] | > 5.00
O=C(O)CC1CCCCN1C(=O)c1ccc(OCCCC2CCNCC2)cc1 (stereo not shown) [Example 480] | 4.30 to 5.00
CCCCOC(=O)N[C@@H](CNC(=O)c1cccc(COc2ccc(C(=N)N)cc2)c1)C(=O)OC [Example 3a, Methyl N-^2-1-butyloxycarbonyl-N^3-(3-(4-amidinophenyloxymethyl)benzoyl)-L-2,3-diaminopropionate TFA salt] | > 5.00
CCCCOC(=O)N[C@@H](CNC(=O)c1cc(OCc2ccc(C(=N)N)cc2)no1)C(=O)O [Example 123, N^2-n-butyloxycarbonyl-N^3-[3-(4-amidinobenzyloxy)-5-isoxazolecarbonyl]-L-2,3-diaminopropionate TFA salt] | > 5.00
CCCCOC(=O)N[C@@H](CNC(=O)c1cc(OCC2CCN(C(=N)N)CC2)no1)C(=O)OC [Example 479, Methyl N^2-n-butyloxycarbonyl-N-[3-(N-amidino-4-piperidinylmethoxy)-5-isoxazolecarbonyl]-L-2,3-diaminopropionate TFA salt] | > 5.00
O=C(O)CCNC(=O)c1ccc(OCCCC2CCNCC2)cc1 [Example 84b, TFA salt] | > 5.00
COC(=O)[C@H](CNC(=O)c1cccc(COc2ccc(C(=N)N)cc2)c1)NC(=O)Cc1ccccn1 [Example 500a] | > 5.00
COC(=O)[C@H](CNC(=O)c1cccc(COc2ccc(C(=N)N)cc2)c1)NC(=O)c1ccncc1 [Example 20a] | > 5.00
N=C(N)c1ccc(COc2cccc(C(=O)NC(CC(=O)O)C(F)(F)F)c2)cc1 (racemic) [Example 92, N-(3-(4-amidinobenzyloxy)benzoyl)-DL-3-amino-4,4,4-trifluorobutyric acid TFA salt] | 4.00 to 4.29
COC(=O)[C@H](CNC(=O)c1cccc(COc2ccc(C(=N)N)cc2)c1)NC(=O)CCc1ccccc1 [Example 6a, Methyl N^2-(3-phenylpropionyl)-N^3-(3-(4-amidinophenyloxymethyl)benzoyl)-L-2,3-diaminopropionate TFA salt] | > 5.00
Cc1ccc(S(=O)(=O)N[C@@H](CNC(=O)c2cccc(COc3ccc(C(=N)N)cc3)c2)C(=O)O)cc1 [Example 16, N^2-p-toluenesulfonyl-N^3-(3-(4-amidinophenyloxymethyl)benzoyl)-L-2,3-diaminopropionic acid TFA salt] | > 5.00
COC(=O)[C@H](CNC(=O)c1cccc(COc2ccc(C(=N)N)cc2)c1)NC(=O)Cc1cccnc1 [Example 119a, Methyl-N^2-3-pyridylacetoyl-N^3-[3-(4-amidinophenyloxymethyl)benzoyl]-L-2,3-diaminopropionate] | > 5.00
N=C(N)c1ccc(OCc2cccc(C(=O)NC[C@H](NC(=O)OCc3ccccc3)C(=O)O)c2)cc1 [Example 53, N^2 -Cbz-N^3-(3-(4-amidinophenyloxymethyl)benzoyl)-L-2,3-diaminopropionic acid TFA salt] | > 5.00
O=C(O)CCNC(=O)c1cccc(OCCCC2CCNCC2)c1 [Example 84a] | > 5.00
COC(=O)[C@H](CNC(=O)c1cccc(COc2ccc(C(=N)N)cc2)c1)NS(=O)(=O)c1ccc(C)cc1 [Example 16a, Methyl N^2-p-toluenesulfonyl-N^3-(3-(4-amidinophenyloxymethyl)benzoyl)-L-2,3-diaminopropionate TFA salt] | 4.30 to 5.00
O=C(O)CC1CCCCCN1C(=O)c1ccc(OCCCC2CCNCC2)cc1 (stereo not shown) [Example 481] | 4.30 to 5.00
COC(=O)[C@H](CNC(=O)c1cccc(COc2ccc(C(=N)N)cc2)c1)NC(=O)c1cccnc1 [Example 19a, Methyl-N^2-nicotinoyl-N^3-[3-(4-amidinophenyloxymethyl)benzoyl]-L-2,3-diaminopropionate, TFA salt] | > 5.00
COC(=O)[C@H](CNC(=O)c1cccc(COc2ccc(C(=N)N)cc2)c1)NC(=O)c1ccccn1 [Example 18a] | > 5.00
N=C(N)c1ccc(OCc2cccc(C(=O)NCCC(=O)O)c2)cc1 [Example 27, N-(3-(4-amidinophenyloxymethyl)benzoyl)-3-aminopropionic acid TFA salt] | > 5.00
CCOC(=O)C(CNC(=O)c1cccc(COc2ccc(C(=N)N)cc2)c1)NC(=O)OCc1ccccc1 (stereo not shown) [Example 110] | 4.30 to 5.00
